Source: PMC11124413, “Synthesis, Antibacterial Effects, and Toxicity of Licochalcone C” (Pharmaceuticals, 2024)
Values after ≈ are worked out from the molar mass of the structure shown. Read-outs that look alike come from different tables or passages of the source.

Experiments:
MSSA (ATCC 6538) = test: MIC, broth microdilution with resazurin; format: cell-based; conditions: Staphylococcus aureus (MSSA), mean of triplicates
MRSA (ATCC BAA44) = test: MIC, broth microdilution with resazurin; format: cell-based; conditions: Staphylococcus aureus (MRSA), mean of triplicates
[1] = system: S. epidermidis (ATCC 14990); test: MIC, broth microdilution with resazurin; format: cell-based; conditions: ATCC14990; Staphylococcus epidermidis; mean of triplicates
E. faecalis (ATCC 1299) = test: MIC, broth microdilution with resazurin; format: cell-based; conditions: ATCC1299; Enterococcus faecalis; mean of triplicates
[2] = system: S. pneumoniae (ATCC 6305); test: MIC, broth microdilution with resazurin; format: cell-based; conditions: ATCC6305; Streptococcus pneumoniae; mean of triplicates
[3] = system: S. sanguinis (ATCC 10556); test: MIC, broth microdilution with resazurin; format: cell-based; conditions: ATCC10556; Streptococcus sanguinis; mean of triplicates
S. sobrinus (ATCC 33478) = test: MIC, broth microdilution with resazurin; format: cell-based; conditions: ATCC33478; Streptococcus sobrinus; mean of triplicates
S. mutans (ATCC 25175) = test: MIC, broth microdilution with resazurin; format: cell-based; conditions: ATCC25175; Streptococcus mutans; mean of triplicates
[4] = system: M. tuberculosis (ATCC 27294); test: Antimycobacterial MIC, resazurin microtiter assay; format: cell-based; conditions: ATCC27294; Mycobacterium tuberculosis; mean of triplicates
M. avium (ATCC 25291) = test: Antimycobacterial MIC, resazurin microtiter assay; format: cell-based; conditions: ATCC25291; Mycobacterium avium; mean of triplicates
M. kansasii (ATCC 12478) = test: Antimycobacterial MIC, resazurin microtiter assay; format: cell-based; conditions: ATCC12478; Mycobacterium kansasii; mean of triplicates
H. pylori (ATCC 43526) = test: MIC, broth microdilution with resazurin; format: cell-based; conditions: Helicobacter pylori, mean of triplicates
[5] = system: P. aeruginosa (ATCC 27853); test: MIC, broth microdilution with resazurin; format: cell-based; conditions: Pseudomonas aeruginosa, mean of triplicates
[6] = system: K. pneumoniae (ATCC 23883); test: MIC, broth microdilution with resazurin; format: cell-based; conditions: Klebsiella pneumoniae, mean of triplicates
[7] = system: Escherichia coli (ATCC 25922); test: MIC, broth microdilution with resazurin; format: cell-based
Gram-positive bacteria = test: MIC, panel of Gram-positive bacteria; format: cell-based; conditions: all Gram-positive bacteria tested
MRSA planktonic cells = test: Checkerboard assay; format: cell-based, S. aureus
Protocol: (§1) The combinations of LCC with tetracycline and vancomycin were evaluated against MSSA and MRSA, respectively, using a microdilution broth checkerboard assay, according to White and collaborators, adapted with the standard procedure established by the CLSI [51, 54]. The fractional inhibitory concentration (FIC) of the combination between LCC and tetracycline or vancomycin was determined using Mueller–Hinton broth culture medium into 96-well plates, with a final inoculum suspension of 5.0 × 10^5 CFU/mL, incubated at 37 °C for 24 h. After incubation, an aqueous resazurin solution (0.02%) was added to the wells and the FIC values (ratio between the MIC of the drug in combination and the MIC of the drug alone) were determined for each drug (Equations (1) and (2)). The fractional inhibitory concentration index (FICI) was calculated using Equation (3). (1) FICLCC=MIC of drug A in combination/MIC of drug A alone (2) FICD=MIC of drug B in combination/MIC of drug B alone FIC Index (FICI) = FICLCC + FICD(3)
(§2) The combination was classified as synergistic (FICI ≤ 0.5), indifferent (0.5 < FICI < 4), and antagonistic (FICI ≥ 4). The assays were performed in triplicate in independent experiments.

MSSA planktonic cells = test: Checkerboard assay; format: cell-based, S. aureus; conditions: for MIC: Staphylococcus aureus, drug alone; for MIC / MIC Combined: checkerboard; for MIC Combined: in combination LCC + TC
Protocol: as §1, §2

MSSA biofilm = test: Antibiofilm assay (biofilm formation); format: cell-based, S. aureus; conditions: for MBIC50 (minimum biofilm inhibitory concentration): MSSA biofilm formation
MRSA biofilm = test: Antibiofilm assay (biofilm formation); format: cell-based, S. aureus
[8] = system: Galleria mellonella larvae; test: Systemic toxicity in Galleria mellonella larvae; format: in vivo
Protocol: The systemic toxicity assay was performed to evaluate the acute toxic effects of LCC, following the procedures described by Megaw [63]. For the experiment, 10 healthy larvae from G. mellonella were randomly selected for each concentration test, with a weight range between 0.2 g and 0.3 g and without melanization aspects. The larvae were chilled on ice for 20 min and had their prolegs cleaned with 70% ethanol. […] Five microliters of the solution were injected into the hemocoel of each larva through the last left proleg using a 25 µL Hamilton syringe. After the administration, the larvae were incubated at 37 °C and their survival was monitored in selected intervals over 72 h. The larvae unable to move when touched and showing elevated levels of melanization were counted as dead. Experiments were performed in triplicate.

NADH-oxidase = target: NADH-oxidase; set-up: method as in PMID 9621457; conditions: cited from earlier work
[9] = target: NADH-cytochrome c reductase; set-up: method as in PMID 9621457; conditions: cited from earlier work
NADH-CoQ reductase = target: NADH-CoQ reductase; set-up: method as in PMID 9621457; conditions: cited from earlier work
NADH-FMN oxidoreductase = target: NADH-FMN oxidoreductase; set-up: method as in PMID 9621457; conditions: cited from earlier work
[10] = system: E. coli respiratory chain; set-up: method as in PMID 9621457; conditions: cited from earlier work
T24 (bladder) = system: T24 (bladder); set-up: method as in PMID 26397392; conditions: at 45 µg/mL; cited from earlier work
MCF7 (breast) = system: MCF7 (breast); set-up: method as in PMID 26397392; conditions: at 45 µg/mL; cited from earlier work
A549 (lung) = system: A549 (lung); set-up: method as in PMID 26397392; conditions: at 45 µg/mL; cited from earlier work
HCT116 (colorectal) = system: HCT116 (colorectal); set-up: method as in PMID 38148556; conditions: read-out: IC50 (proliferation); cited from earlier work
HepG2 (liver) = system: HepG2 (liver); set-up: method as in PMID 32578448; conditions: read-out: IC50 (proliferation); cited from earlier work
HN22 (oral) = system: HN22 (oral); set-up: method as in PMID 30129052; conditions: read-out: IC50 (proliferation); cited from earlier work
HSC4 (oral) = system: HSC4 (oral); set-up: method as in PMID 30129052; conditions: read-out: IC50 (proliferation); cited from earlier work
KYSE 30 (esophageal) = system: KYSE 30 (esophageal); set-up: method as in PMID 32009586; conditions: read-out: IC50 (proliferation); cited from earlier work
KYSE 70 (esophageal) = system: KYSE 70 (esophageal); set-up: method as in PMID 32009586; conditions: read-out: IC50 (proliferation); cited from earlier work
KYSE 410 (esophageal) = system: KYSE 410 (esophageal); set-up: method as in PMID 32009586; conditions: read-out: IC50 (proliferation); cited from earlier work
KYSE 450 (esophageal) = system: KYSE 450 (esophageal); set-up: method as in PMID 32009586; conditions: read-out: IC50 (proliferation); cited from earlier work
KYSE 510 (esophageal) = system: KYSE 510 (esophageal); set-up: method as in PMID 32009586; conditions: read-out: IC50 (proliferation); cited from earlier work
Vero cells = system: Vero cells; set-up: method as in PMID 31749783; conditions: cited from earlier work
[11] = system: Staphylococcus aureus (ATCC 29213) membrane; test: Membrane disruption assay, fluorescence microscopy with SYTO9 and propidium iodide; conditions: S. aureus; LCC at MIC 12.5 µg/mL, 15 min; nisin positive control
Protocol: Two fluorescent dyes propidium iodide (PI) and SYTO9 were added, which stain cells with disrupted membranes (in pink) and whole membranes (in blue).
The assay was performed using Staphylococcus aureus (ATCC 29213), an MSSA strain. Bacterial cells were cultivated in solid TSA broth (tryptone soya) at 36 °C and stirred at 200 rpm. […] Cells were stained with the Live/Dead BacLight Kit (Thermo-Scientific® L7012, Carlsbad, CA, USA), which is composed of two nucleic acid dyes: SYTO9, which stains all cells, and propidium iodide, which penetrates cells with damaged membranes [60]. The stained cells were immobilized on agarose-covered slides as described by Martins [61]. Untreated S. aureus cells with intact membranes were used as negative controls, and S. aureus cells exposed to nisin (Sigma-Aldrich® N5764, St. Louis, MO, USA) were used as positive controls for membrane damage [62]. Microscopic analyses were carried out using an Olympus BX-61 microscope, equipped with a monochromatic OrcaFlash-2.8 camera (Hamamatsu, Japan), and the software CellSens Dimension Version 11 (Olympus).

[12] = ATCC25922, mean of triplicates, read-out: MIC

SMILES: COc1c(/C=C/C(=O)c2ccc(O)cc2)ccc(O)c1CC=C(C)C [LCC, licochalcone C]
- MIC (MSSA (ATCC 6538)): 12.5 µg/mL (≈ 36.9 µM)
- MIC (MSSA (ATCC 6538); read-out: MIC): 12.5 µg/mL (≈ 36.9 µM)
- MIC (MRSA (ATCC BAA44)): 12.5 µg/mL (≈ 36.9 µM)
- MIC (MRSA (ATCC BAA44); read-out: MIC): 12.5 µg/mL (≈ 36.9 µM)
- MIC [1]: 6.2 µg/mL (≈ 18.3 µM)
- MIC (E. faecalis (ATCC 1299)): 50 µg/mL (≈ 148 µM)
- MIC [2]: 50 µg/mL (≈ 148 µM)
- MIC [3]: 6.2 µg/mL (≈ 18.3 µM)
- MIC (S. sobrinus (ATCC 33478)): 12.5 µg/mL (≈ 36.9 µM)
- MIC (S. mutans (ATCC 25175)): 12.5 µg/mL (≈ 36.9 µM)
- MIC [4]: 31.2 µg/mL (≈ 92.2 µM)
- MIC (M. avium (ATCC 25291)): 62.5 µg/mL (≈ 185 µM)
- MIC (M. kansasii (ATCC 12478)): 125 µg/mL (≈ 369 µM)
- MIC (H. pylori (ATCC 43526); ATCC43526, read-out: MIC): 25 µg/mL (≈ 73.9 µM)
- MIC (H. pylori (ATCC 43526)): 25 µg/mL (≈ 73.9 µM)
- MIC ([5]; ATCC27853, read-out: MIC): > 400 µg/mL
- MIC [5]: >400 µg/mL
- MIC ([6]; ATCC23883, read-out: MIC): > 400 µg/mL
- MIC [6]: >400 µg/mL
- MIC [7, 12]: > 400 µg/mL
- MIC ([7]; mean of triplicates): >400 µg/mL
- MIC, range over Gram-positive bacteria (Gram-positive bacteria): 6.2 to 50.0 µg/mL
- MIC (MRSA planktonic cells; Staphylococcus aureus, checkerboard, drug alone, read-out: MIC Alone): 12.5 µg/mL
- MIC Combined (MRSA planktonic cells; checkerboard, in combination LCC + VAN): 6.25 µg/mL
- FICLCC (fractional inhibitory concentration for LCC) (MRSA planktonic cells; combination LCC + VAN): 0.5
- MIC (MSSA planktonic cells): 12.5 µg/mL
- MIC Combined (MSSA planktonic cells): 3.12 µg/mL
- FICLCC (fractional inhibitory concentration for LCC) (MSSA planktonic cells; combination LCC + TC): 0.25
- inhibition of biofilm formation (MSSA biofilm): 75%
- MBIC50 (minimum biofilm inhibitory concentration) (MSSA biofilm): 6.25 µg/mL
- MBIC50 (minimum biofilm inhibitory concentration) (MRSA biofilm; MRSA biofilm formation): 6.25 µg/mL
- inhibition of biofilm formation (MRSA biofilm; MRSA, at MBIC50 (6.25 μg/mL)): 87%
- lethality to larvae ([8]; 100 µg/mL after 80 h treatment): not lethal
- larvae survival ([8]; LCC at 12.5, 25, 50, and 100 µg/mL, over a period of 72 h): 100%
- IC50 (NADH-oxidase): 3 µM
- IC50 [9]: 29.6 µM
- IC50 (NADH-CoQ reductase): > 100 µM
- IC50 (NADH-FMN oxidoreductase): > 100 µM
- inhibition of respiratory chain [10]: did not inhibit
- proliferation inhibition (T24 (bladder)): 68%
- proliferation inhibition (MCF7 (breast)): 47%
- proliferation inhibition (A549 (lung)): 40%
- IC50 (HCT116 (colorectal)): 16.6 µM
- IC50 (HepG2 (liver)): 50.8 µM
- IC50 (HN22 (oral)): 23.8 µM
- IC50 (HSC4 (oral)): 27.1 µM
- IC50 (KYSE 30 (esophageal)): 28 µM
- IC50 (KYSE 70 (esophageal)): 36 µM
- IC50 (KYSE 410 (esophageal)): 19 µM
- IC50 (KYSE 450 (esophageal)): 28 µM
- IC50 (KYSE 510 (esophageal)): 26 µM
- IC50 (Vero cells): 27.7 µg/mL (≈ 81.9 µM)
- percentage of cells with permeabilized membrane (stained with both fluorophores) [11]: 75%

SMILES: CN(C)[C@@H]1C(O)=C(C(N)=O)C(=O)[C@@]2(O)C(O)=C3C(=O)c4c(O)cccc4[C@@](C)(O)[C@H]3C[C@@H]12 [Tetracycline, tetracycline, reference compound]
- MIC (MSSA (ATCC 6538); read-out: MIC): 0.09 µg/mL (≈ 0.203 µM)
- MIC [1]: > 5.9 µg/mL
- MIC (E. faecalis (ATCC 1299)): 3.3 µg/mL (≈ 7.43 µM)
- MIC [2]: 0.4 µg/mL (≈ 0.9 µM)
- MIC (H. pylori (ATCC 43526); ATCC43526, read-out: MIC): 1.47 µg/mL (≈ 3.31 µM)
- MIC ([5]; ATCC27853, read-out: MIC): 5.9 µg/mL (≈ 13.3 µM)
- MIC ([6]; ATCC23883, read-out: MIC): 1.47 µg/mL (≈ 3.31 µM)
- MIC [7, 12]: 0.73 µg/mL (≈ 1.64 µM)
- MIC (MSSA planktonic cells): 0.09 µg/mL
- MIC Combined (MSSA planktonic cells): 0.18 µg/mL
- FICD (fractional inhibitory concentration for the associated drug) (MSSA planktonic cells; combination LCC + TC): 2.0
- MBIC50 (minimum biofilm inhibitory concentration) (MSSA biofilm): 0.046 µg/mL
